From patent US11534441B2, “MAP4K1 inhibitors” (Blueprint Medicines Corporation, priority 2020, dated 2022)

Experiments:
[1] = system: expanded CD3+ T cells; assay: T cell enhancement of cytokines: IL2 measurement (HTRF) in expanded CD3+ T cells stimulated with anti-CD3/anti-CD28; assay type: cell-based, human; conditions: IL-2 measurement
Procedure: T cells are isolated from whole blood of healthy donors by immunomagnetic negative selection following manufacture's protocol (StemCell Technologies, human T cell isolation kit). Purity of isolated cells is assessed by flow cytometry and yields 95-98% CD3^+ T cells. For expansion of T cells, 1×10^6 cells/well are plated in serum free cell expansion media (ThermoFisher) containing 30 U of recombinant human IL2 (R&D) and stimulated with 25 ul of CD3/CD28 beads (Invitrogen) in 24 well plates for 3-4 days. T cells are then expanded in 175 cm flasks and maintained at a cell density of 1 to 2.5×10^6 cells/ml days by addition of ⅔ of fresh media every 2-3 days. After 10-14 days, cells are frozen in BamBanker freezing media (Thermo) and stored in liquid nitrogen.
For IL2 measurement, expanded CD3^+ T cells are dispensed at 100K cells/well (cultured in X-VIVO 10 Serum-free media) and are stimulated with plate-bound anti-CD3 and soluble anti-CD28 in the presence of vehicle or compound of the disclosure at various concentrations for 24 h. As outlined in the manufacturer's protocol (Cisbio), 16 μL of conditioned media is transferred to a white 384-well low volume plate. Following a 24 h incubation with the anti-IL2 antibodies, the homogenous time resolved fluorescence (HTRF) is measured.

[2] = biological target: MAP4K1 (HPK1) (Homo sapiens (Human), UniProt Q92918); assay: MAP4K1 (HPK1) biochemical enzymatic activity, electrophoretic mobility shift (EZReader 2), ATP at APPKM (26 μM)
Sequence of MAP4K1 (HPK1) (Q92918 whole entry): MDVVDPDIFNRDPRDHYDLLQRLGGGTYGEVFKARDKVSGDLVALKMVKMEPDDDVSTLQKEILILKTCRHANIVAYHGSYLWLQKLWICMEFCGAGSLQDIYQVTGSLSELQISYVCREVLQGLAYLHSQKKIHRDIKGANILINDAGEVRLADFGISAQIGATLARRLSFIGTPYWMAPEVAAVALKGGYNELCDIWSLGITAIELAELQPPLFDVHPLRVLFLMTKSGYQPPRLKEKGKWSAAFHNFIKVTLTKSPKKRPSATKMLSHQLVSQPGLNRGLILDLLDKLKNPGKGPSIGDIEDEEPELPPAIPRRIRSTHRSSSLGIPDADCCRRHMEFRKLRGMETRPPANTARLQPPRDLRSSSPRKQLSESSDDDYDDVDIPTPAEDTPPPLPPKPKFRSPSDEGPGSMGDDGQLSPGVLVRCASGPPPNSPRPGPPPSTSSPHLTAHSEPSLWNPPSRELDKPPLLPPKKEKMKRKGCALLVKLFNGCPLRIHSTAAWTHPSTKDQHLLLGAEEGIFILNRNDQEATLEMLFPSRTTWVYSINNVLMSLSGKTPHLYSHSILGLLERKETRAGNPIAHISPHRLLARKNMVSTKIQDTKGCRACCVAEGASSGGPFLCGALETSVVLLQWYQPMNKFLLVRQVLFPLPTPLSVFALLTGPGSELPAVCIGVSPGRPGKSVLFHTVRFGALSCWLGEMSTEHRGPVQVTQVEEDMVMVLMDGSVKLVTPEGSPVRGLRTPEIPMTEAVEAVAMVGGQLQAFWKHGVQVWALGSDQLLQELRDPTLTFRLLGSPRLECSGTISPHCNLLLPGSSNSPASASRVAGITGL
Summary of the method: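 Enzyme at 0.1-15 nM was incubated with 1.5 μM fluorescent peptide and ATP at the apparent Km (26 μM) in HEPES pH 7.5, MgCl2, DTT and Brij 35. The reaction ran at 25° C for 60-180 min with a 10-point, 4-fold compound series (1% DMSO) and was stopped with EDTA. Substrate and product peptides were resolved by microfluidic mobility shift, and their peak ratio gave activity.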

[3] = Homo sapiens, T-cell, class designation
[4] = Homo sapiens, T-cell, numeric value

EC50 [1, 3] [nM] | EC50 [1, 4] [nM] | IC50 ([2]; class designation) [nM] | IC50 ([2]; numeric value) [nM] | EC50 ([1]; class designation) [nM] | EC50 ([1]; numeric value) [nM] | SMILES
< 35 | 23.7 | < 0.3 | 0.22 | – | – | CC1(C)Cc2nc(Nc3cc4c(C(C)(C)N)cnc(OCC(F)F)c4cn3)ccc2C(=O)O1 [Compound 73]
< 35 | 22.2 | < 0.3 | 0.12 | – | – | CC1(C)Cc2nc(Nc3cc4c([C@](C)(N)C5CC5)cnc(OC5CC5)c4cn3)ccc2C(=O)O1 [Compound 74, R-2-((5-(1-amino-1-cyclopropylethyl)-8-cyclopropoxy-2,7-naphthyridin-3-yl)amino)-7,7-dimethyl-7,8-dihydro-5H-pyrano[4,3-b]pyridin-5-one]
< 35 | 32.5 | 0.31 to 1 | 0.65 | – | – | CC1(C)Cc2nc(Nc3cc4c(C(C)(C)N)cnc(OCC(F)(F)F)c4cn3)ccc2C(=O)O1 [Compound 77]
< 35 | 11.6 | < 0.3 | 0.19 | – | – | C[C@@H]1OC(=O)c2ccc(Nc3cc4c(C(C)(C)N)cnc(OCC(F)(F)F)c4cn3)nc2[C@H]1C [Compound 78]
– | – | < 0.3 | 0.08 | < 35 | 4.1 | CC[C@@](C)(N)c1cnc(OC2CC2)c2cnc(Nc3ccc4c(n3)[C@@H](C)[C@H](C)OC4=O)cc12 [Compound 80]
< 35 | 20.8 | < 0.3 | 0.16 | – | – | C[C@@H]1OC(=O)c2ccc(Nc3cc4c(C(C)(C)N)cnc(OC5(C)CC5)c4cn3)nc2[C@H]1C [Compound 82]
< 35 | 28.7 | < 0.3 | 0.19 | – | – | C[C@@H]1c2nc(Nc3cc4c(C(C)(C)N)cnc(OC5(C)CC5)c4cn3)ccc2C(=O)OC1(C)C [Compound 83]
– | – | < 0.3 | 0.22 | 35.1 to 45 | 36.1 | CC[C@](C)(N)c1cnc(OC2(C)CC2)c2cnc(Nc3ccc4c(n3)[C@@H](C)[C@H](C)OC4=O)cc12 [Compound 85]
– | – | 0.31 to 1 | 0.44 | < 35 | 31.6 | CC[C@](C)(N)c1cnc(OC2(C)CC2)c2cnc(Nc3ccc4c(n3)[C@@H](C)C(C)(C)OC4=O)cc12 [Compound 87]
– | – | < 0.3 | 0.16 | < 35 | 11.5 | C[C@@H]1OC(=O)c2ccc(Nc3cc4c([C@@](C)(N)C5CC5)cnc(OC5(C)CC5)c4cn3)nc2[C@H]1C [Compound 88]
– | – | < 0.3 | 0.1 | < 35 | 15.1 | C[C@@H]1c2nc(Nc3cc4c([C@](C)(N)C5CC5)cnc(OC5(C)CC5)c4cn3)ccc2C(=O)OC1(C)C [Compound 91]
– | – | < 0.3 | 0.25 | < 35 | 15.4 | CC[C@](C)(N)c1cnc(OC2(C)CC2)c2cnc(Nc3ccc4c(n3)[C@@H](C)[C@@H](C)OC4=O)cc12 [Compound 92]
– | – | < 0.3 | 0.14 | < 35 | 23.5 | C[C@@H]1c2nc(Nc3cc4c([C@](C)(N)C5CC5)cnc(OC5(C)CC5)c4cn3)ccc2C(=O)O[C@@H]1C [Compound 94]
< 35 | 9.4 | < 0.3 | – | – | – | CC[C@@](C)(N)c1cnc(OC2CC2)c2cnc(Nc3ccc4c(n3)[C@@H](C)[C@@H](C)OC4=O)cc12 [Compound 96]
– | – | < 0.3 | 0.11 | < 35 | 20.8 | COc1ncc([C@](C)(N)C2CC2)c2cc(Nc3ccc4c(n3)[C@@H](C)C(C)(C)OC4=O)ncc12 [Compound 101]
– | – | 1.1 to 10 | 1.87 | < 35 | 28.7 | COc1ncc([C@@](C)(N)C2CC2)c2cc(Nc3ccc4c(n3)[C@@H](C)C(C)(C)OC4=O)ncc12 [Compound 102]
< 35 | 3.1 | < 0.3 | 0.11 | – | – | COc1ccc(C(C)(C)N)c2cc(Nc3ccc4c(n3)CC(C)(C)OC4=O)ncc12 [Compound 103]
45.1 to 55 | 50.6 | 1.1 to 10 | 2.09 | – | – | CC(C)(N)c1cnc(OC2CC2)c2cnc(Nc3ccc4c(n3)C(C)(C)OC4=O)cc12 [Compound 105]
< 35 | 9.8 | < 0.3 | 0.21 | – | – | C[C@@H]1OC(=O)c2ccc(Nc3cc4c(C(C)(C)N)cnc(NC5CC5)c4cn3)nc2[C@H]1C [Compound 109]
– | – | 0.31 to 1 | 0.55 | < 35 | 33.9 | CC[C@@](C)(N)c1cnc(OC2CC2)c2cnc(Nc3ccc4c(n3)C(C)(C)OC4=O)cc12 [Compound 110]

EC50 [1, 3] [nM] | EC50 [1, 4] [nM] | IC50 ([2]; class designation) [nM] | IC50 ([2]; numeric value) [nM] | EC50 ([1]; class designation) [nM] | EC50 ([1]; numeric value) [nM] | SMILES
– | – | > 10 | 16.8 | > 55 | 2660 | CC[C@](C)(N)c1cnc(OC2CC2)c2cnc(Nc3ccc4c(n3)C(C)(C)OC4=O)cc12 [Compound 111]
< 35 | 19.6 | < 0.3 | 0.23 | – | – | CC(C)(N)c1cnc(OC2CC2)c2cnc(Nc3ccc4c(n3)C(C)(C)COC4=O)cc12 [Compound 112]
– | – | 0.31 to 1 | 0.58 | < 35 | 32.7 | CC[C@]1(C)OC(=O)c2ccc(Nc3cc4c(C(C)(C)N)cnc(OC5CC5)c4cn3)nc21 [Compound 113]
– | – | 0.31 to 1 | 0.88 | < 35 | 25.6 | CC[C@@]1(C)OC(=O)c2ccc(Nc3cc4c(C(C)(C)N)cnc(OC5CC5)c4cn3)nc21 [Compound 114]
> 55 | 232 | > 10 | 7.39 | – | – | CC(C)(N)c1cnc(OCC(F)(F)F)c2cnc(Nc3ccnc(C(C)(C)F)n3)cc12 [Compound 115]
> 55 | 64.9 | 1.1 to 10 | 2.14 | – | – | CC(C)(N)c1cnc(OCC(F)F)c2cnc(Nc3ccc4c(n3)C(C)(C)OC4=O)cc12 [Compound 116]
< 35 | 7.6 | < 0.3 | 0.2 | – | – | C[C@@H]1c2nc(Nc3cc4c(C(C)(C)N)cnc(NC5CC5)c4cn3)ccc2C(=O)OC1(C)C [Compound 123]
< 35 | 7.4 | < 0.3 | 0.24 | – | – | C[C@@H]1OC(=O)c2ccc(Nc3cc4c(C(C)(C)N)cnc(NC5CCC5)c4cn3)nc2[C@H]1C [Compound 124]
– | – | < 0.3 | 0.17 | < 35 | 21 | C[C@H]1OC(=O)c2ccc(Nc3cc4c(C(C)(C)N)cnc(OC5CC5)c4cn3)nc2C1(C)C [Compound 127]
– | – | 0.31 to 1 | 0.46 | 35.1 to 45 | 35.2 | CC[C@](C)(N)c1cnc(OC2CC2)c2cnc(Nc3ccc4c(n3)[C@@H](C)[C@H](C)OC4=O)cc12 [Compound 131]
– | – | 1.1 to 10 | 5.86 | 45.1 to 55 | 53.8 | CC[C@](C)(N)c1cnc(OC2CC2)c2cnc(Nc3ccc4c(n3)CC(C)(C)OC4=O)cc12 [Compound 133]
< 35 | 31.6 | 0.31 to 1 | 0.54 | – | – | CC1(C)Cc2nc(Nc3cc4c(C(C)(C)N)cnc(OC5(C)CC5)c4cn3)ccc2C(=O)O1 [Compound 135]
– | – | 0.31 to 1 | 0.39 | 35.1 to 45 | 40.5 | CC[C@@](C)(N)c1cnc(OC2CC2)c2cnc(Nc3ccc4c(n3)C(C)(C)COC4=O)cc12 [Compound 136]
– | – | < 0.3 | 0.27 | < 35 | 13.8 | CC[C@H]1c2nc(Nc3cc4c(C(C)(C)N)cnc(OC5CC5)c4cn3)ccc2C(=O)O[C@H]1C [Compound 138]
< 35 | 21.6 | 0.31 to 1 | 0.42 | – | – | C[C@@H]1OC(=O)c2ccc(Nc3cc4c(C(C)(C)N)cnc(OC5COC5)c4cn3)nc2[C@H]1C [Compound 141]
– | – | < 0.3 | 0.1 | < 35 | 13.6 | CC[C@@](C)(N)c1cnc(OC2CC2)c2cnc(Nc3ccc4c(n3)[C@@H](C)C(C)(C)OC4=O)cc12 [Compound 156]
– | – | < 0.3 | 0.14 | < 35 | 21.3 | CC[C@](C)(N)c1cnc(OC2CC2)c2cnc(Nc3ccc4c(n3)C(C)(C)[C@@H](C)OC4=O)cc12 [Compound 157]
< 35 | 27.4 | 0.31 to 1 | 0.39 | – | – | C[C@@H]1OC(=O)c2ccc(Nc3cc4c(C(C)(C)N)cnc(O[C@H]5CCOC5)c4cn3)nc2[C@H]1C [Compound 159]
35.1 to 45 | 40 | < 0.3 | 0.25 | – | – | C[C@@H]1OC(=O)c2ccc(Nc3cc4c(C(C)(C)N)cnc(OCC(C)(F)F)c4cn3)nc2[C@H]1C [Compound 166]
– | – | < 0.3 | 0.15 | 35.1 to 45 | 41.3 | CC1(C)Cc2nc(Nc3cc4c([C@](C)(N)C5CCC5)cnc(OC5CC5)c4cn3)ccc2C(=O)O1 [Compound 168]
